One compound from patent US7977375B2, “Antibiotic and method of production thereof” (Helmholtz-Zentrum Für Infektionsforschung GmbH, priority 2004, dated 2011) can be followed below.

The subject of assay [1] is bacteria, especially gram-positive bacteria. Kind of assay: bacteriostatic activity, general statement. Type of assay: cell-based. As to conditions: very low concentrations. As to the method:
7-O-malonyl macrolactin A is antibiotically active against bacteria, especially gram-positive bacteria and is, in particular, advantageously bacteriostatic at very low concentrations, for example, in the region of 0.05-4 μg/ml. […] The bacteriostatic activity of 7-O-malonyl macrolactin A has already been observed at weak concentrations, as compared to the prior art macrolactin A, even where there has been no direct or immediate bactericidal effect at such low concentrations.

Assay [2] concerns L929 mouse fibroblast cells. Kind of assay: inhibition of proliferation, CyQUANT cell proliferation test. Particulars: Mus musculus, L929, 120 h, 5 days. Format: cell-based. As to the method:
(§1) The cytotoxicity of 7-O-malonyl macrolactin A was compared to that of 7-O-succinyl macrolactin A and macrolactin A in vitro with respect to the inhibition of the proliferation of L929 mouse fibroblast cells or the human epithelial cell line HeLa.
(§2) For the cell culture, the HeLa cells were cultivated in low-glucose DMEM medium (Gibco), and the L929 cells in high-glucose DMEM medium. Both were supplemented with 10% by volume foetal calf serum (Gibco) at 37° C. in an atmosphere containing 5% CO2. The cells were extracted from stock cultures by means of trypsinization with EDTA (HeLa) or without EDTA (L929), then counted and diluted to 2×10^5 cells/ml. For the tests, microtitre plates (Nunc.) comprising 96 depressions were plated out in serial dilution without or in the presence of the test compounds or methanol. Determination of morphological alterations of the cells was carried out by means of phase contrast microscopy after 1, 2 and 5 days incubation.
(§3) After 5 days cultivation, cell counts were determined by the CyQUANT cell proliferation test (Molecular Probes), which is a highly sensitive microtitre plate test based on fluorescence. The test employs the dye CyQUANT, which, by binding to cellular nucleic acids, enhances fluorescence, which can then be measured by fluorescein excitation. The emission of fluorescence by the dye-nucleic acid complex correlated linearly with the cell count. For test purposes, the residue was carefully removed after 5 days incubation, the cells washed with PBS (phosphate buffered saline solution), the buffer removed and the cells frozen at −80° C. For the test, the cells were thawed at ambient temperature and lysated in a buffered solution containing the dye CyQUANT, in accordance with manufacturer's instructions. Fluorescence was measured by means of a fluormetric microtitre-plate reader (Titertex Fluorskan II) (excitation at 480 nm, emission at 520 nm). The […] were used to calculate the percentage of cellular proliferation in medium both alone and in the presence of serial dilutions of methanol and the macrolactin compounds. […] Proliferation was measured by means of the fluorescence-based test CyQUANT for determining viable cell counts. Table 5 illustrates the relative inhibition of proliferation as compared to a control culture comprising fresh medium without the addition of a macrolactin.

Assay [3] relates to human epithelial cell line HeLa. The assay is described as above. Type of assay: cell-based. As to the method:
as §1, §2, §3

Assay [4] concerns Candida krusei DSMZ6128. Kind of assay: kinetics of growth (FIG. 1E). Type of assay: cell-based. As to conditions: C. krusei; 128 μg/ml. From the text: (§4) • FIG. 1A y-axis: Log CFU (Colony Forming Units) Cells/ml • x-axis: Time (HRS) • FIG. 1B y-axis: Log CFU (Colony Forming Units) Cells/ml • x-axis: Time (HRS) • FIG. 1C: y-axis: Log CFU (Colony Forming Units) Cells/ml • x-axis: Time (HRS) • FIG. 1D: y-axis: Log CFU (Colony Forming Units) Cells/ml • x-axis: Time (HRS) • FIG. 1E: y-axis: Log CFU (Colony Forming Units) Cells/ml • x-axis: Time (HRS) • FIG. 1F: y-axis: Log CFU (Colony Forming Units) Cells/ml • x-axis: Time (HRS) • FIG. 5A: y-axis: % Inhibition • x-axis Concentration μg/ml • FIG. 5B: y-axis: % Inhibition • x-axis Concentration μg/ml

Assay [5] concerns Candida albicans DSM 11225. Kind of assay: MIC / MBC in liquid culture. Particulars: DSM11225, read-out: MIC (minimal inhibitory concentration). Format: cell-based.
Assay [6] has as its system E. faecium VRAR E315. Kind of assay: electron microscopy of cell division (FIG. 3). Type of assay: cell-based, Enterococcus faecium. As to conditions: 16 μg/ml, 4 hours. As to the method:
FIG. 3 a) to c) are electron microscope photographs of E. faecium VRAR E315 after 4 hours growth without antibiotic and d), e) and f) in the presence of 16 μg/ml 7-O-malonyl macrolactin A;
It is thought that 7-O-malonyl macrolactin A inhibits the division of bacterial cells, which interrupts the proliferation thereof.
The effect of 7-O-malonyl macrolactin A on cell division can also be observed from the electron microscope photographs of Enterococcus faecium (VRAR=vancomycin-resistant, ampicillin-resistant, E315, clinical isolate) shown in FIG. 3. The division planes of the untreated cells after 4 hours growth without antibiotic appear as light regions in FIGS. 3a), b) and c). […] In this example, however, no fully formed cell division planes are evident. The initiation of asymmetrical cell division is indicated by the small black arrowheads.

Assay [7] has as its system Enterococcus faecalis ATCC 29212. The assay is described as follows: kinetics of growth at sub-MIC concentrations (FIG. 1C). Format: cell-based. Particulars: E. faecalis ATCC 29212; 4 or 16 μg/ml; four hours following cultivation.
Text: as §4

Assay [8] has as its system Burkholderia cepacia SCV 141. The assay is described as follows: kinetics of growth (FIG. 1F). Type of assay: cell-based. Particulars: B. cepacia SCV 141; 32 μg/ml.
Text: as §4

The test system of assay [9] is Staphylococcus aureus (#). Kind of assay: kinetics of growth at sub-MIC concentrations (FIG. 1A). Type of assay: cell-based. Particulars: S. aureus #, 1 or 4 μg/ml. As to the method:
Investigation of the bacteriostatic activity of 7-O-malonyl macrolactin A required testing the effects of sub-MIC concentrations. […] 24 hours after treatment, the titre of viable cells was reduced by a factor of 100 as compared to the control without 7-O-malonyl macrolactin A.
as §4

Structures are written as SMILES.

`CC1CCC/C=C/C=C/C(O)CC(O)C/C=C\C=C\C(OC(=O)CC(=O)O)C/C=C/C=C\C(=O)O1` (centres unmarked) [7-O-malonyl macrolactin A] came in with a bacteriostatic concentration in assay [1] of 0.05 to 4 µg/mL. The inhibition (commonly the change of the read-out against control, counted positive when it falls) at 3.9 µg/mL in assay [2] (compound concentration 3.9 μg/ml) came to 0%; in assay [3] (Homo sapiens, 120 h, compound concentration 3.9 μg/ml, 5 days), 0%. The inhibition at 7.8 µg/mL in assay [2] (compound concentration 7.8 μg/ml) turned out to be 0%; in assay [3] (Homo sapiens, 120 h, compound concentration 7.8 μg/ml, 5 days), 0%. For the same compound, the inhibition at 15.6 µg/mL is about 32% in assay [2] (compound concentration 15.6 μg/ml) and 0% in assay [3] (Homo sapiens, 120 h, compound concentration 15.6 μg/ml, 5 days). Besides, the inhibition at 31.25 µg/mL was found to be 80% in assay [2] (compound concentration 31.25 μg/ml) and 62% in assay [3] (Homo sapiens, 120 h, compound concentration 31.25 μg/ml, 5 days). The inhibition at 56.5 µg/mL worked out at 86% in assay [2] (compound concentration 56.5 μg/ml) and 93% in assay [3] (Homo sapiens, 120 h, compound concentration 56.5 μg/ml, 5 days). Also, the inhibition at 125 µg/mL in assay [2] (compound concentration 125 μg/ml) turned out to be 84%; in [3] (Homo sapiens, 120 h, compound concentration 125 μg/ml, 5 days), 100%. Moreover, the “Inhibition of proliferation” value is given as “practically complete inhibition of growth” in assay [3] (62.5 μg/ml, CyQUANT test); “failed to inhibit the proliferation” in assay [3] (compound concentration 15.6 μg/ml, 5 days); “capable of inhibiting the proliferation” in assay [3] (compound concentration 31.25 μg/ml, 5 days). Also, the “growth inhibited by a factor” value in assay [4] and in assay [8] was at most 10 each time. Also, the MIC in assay [5] was over 128 mg/L. In [6], the “effect on cell division, electron microscope” value is “anomalous, asymmetrical cell division is being initiated”. The “effect on kinetics of growth” value in assay [7] was “inhibited the growth”; in assay [9] (far below the MIC, first 4 hours), “kills off this bacterium within the first 4 hours following dosage”. Besides, the “growth reduced by a factor” value in assay [9] (subsequent cultivation time) came to 10.
